Test: Stability of crystalline form E at different relative humidities over 3-14 days
Format: physicochemical
Method: Crystalline form E was also tested for stability at different relative humidities over 3-14 days. The results are shown below in Table 3.1

Stability of Crystalline Form E at Different Relative Humidities (RH): crystal type found (30% RH, 3 days): Type E
Stability of Crystalline Form E at Different Relative Humidities (RH): crystal type found (30% RH, 7 days): Type E
Stability of Crystalline Form E at Different Relative Humidities (RH): crystal type found (30% RH, 14 days): Type E + Type F
Stability of Crystalline Form E at Different Relative Humidities (RH): crystal type found (50% RH, 3 days): Type E
Stability of Crystalline Form E at Different Relative Humidities (RH): crystal type found (50% RH, 7 days): Type E
Stability of Crystalline Form E at Different Relative Humidities (RH): crystal type found (50% RH, 14 days): Type E
Stability of Crystalline Form E at Different Relative Humidities (RH): crystal type found (60% RH, 3 days): Type E
Stability of Crystalline Form E at Different Relative Humidities (RH): crystal type found (60% RH, 7 days): Type E
Stability of Crystalline Form E at Different Relative Humidities (RH): crystal type found (60% RH, 14 days): Type E
Stability of Crystalline Form E at Different Relative Humidities (RH): crystal type found (92.5% RH, 3 days): Type E
Stability of Crystalline Form E at Different Relative Humidities (RH): crystal type found (92.5% RH, 7 days): Type E
Stability of Crystalline Form E at Different Relative Humidities (RH): crystal type found (92.5% RH, 14 days): Type E
Stability at low relative humidity (conclusion in words) (storage for 14 days at 30% relative humidity, appearance of Type F): unstable
Compound: O=c1[nH]ncc(N2CCc3c(ncnc3Oc3ccc(F)cc3C(F)(F)F)C2)c1Cl [Crystalline Form E, 4-chloro-5-(4-(4-fluoro-2-(trifluoromethyl)phenoxy)-5,8-dihydropyrido[3,4-d]pyrimidin-7(6H)-yl)pyridazin-3(2H)-one]

— patent publication US12655132B2, “Crystal forms of a pyridazinone TRPC inhibitor” (GFB (ABC), LLC, priority 2019, dated 2026)
